Paper PMC6843786, “Temporin-SHa and Its Analogs as Potential Candidates for the Treatment of Helicobacter pylori” (Biomolecules, 2019)
Like-named read-outs stand apart in the source and are kept apart here. Non-standard residues stand in square brackets, D forms with d. Residues, ends and D or L forms follow the SMILES beside them.

How the values were obtained:
H. pylori (ATCC 43504) [1] = details: ATCC 43504, 24 h
Text: H. pylori used in this study were either the reference strain obtained from the American Type Culture Collection (ATCC 43504) or clinical strains received frozen from our collaborator Josette Raymond from Hospital Cochin, Paris. Strains were obtained from patients who underwent a gastroendoscopy performed for various gastro-intestinal disorders according to the recommendations of Haute Autorité de Santé (HAS). During the endoscopy, biopsy samples were taken from antrum and corpus. Samples were then crushed, and the material was used for bacterial culture and molecular methods. An antibiogram was performed and strains were then frozen at -80 °C in a broth with 10% glycerol. Bacteria were cultured as previously described. Briefly, H. pylori (ATCC 43504) was cultured in brain heart infusion (BHI) and incubated at 37 °C for 16 h in microaerophilic condition in BD GasPak EZ using BD GasPak EZ CampyPak container system sachets (BD Biosciences, Le Pont-de-Claix, France). For clinical strains, a sample from the frozen bacteria was streaked on Blood Agar (Base) (Sigma-Aldrich, Illkirch-Graffenstaden, France) supplemented with 5% horse defibrinated blood (Fisher Scientific, Les Ulis, France) and 2% isovitale-X (Fisher Scientific, Illkirch-Graffenstaden, France). The petri dishes were then incubated at 37 °C for 4–7 days in microaerophilic condition. Then, a colony is transferred to 3 mL Mueller Hinton (MH) broth supplemented with 10% fetal bovine serum (FBS) and 2% isovitale-X. The cultures were then incubated for 4–7 days until the bacteria grow before further experiments.
(§1) Briefly, after the growth of H. pylori in liquid culture the optical density (OD) of the bacterial suspensions were read at 600 nm and adjusted to one. Stock solutions of the peptides at 1 mM were prepared in sterile water. Bacteria were diluted in medium to reach bacterial density around 10^5 bacteria/mL. One-hundred microliters per well of bacterial suspension were then added into sterile polypropylene 96-well microplates (Greiner BioOne, Paris, France) and exposed to increasing concentrations of peptides (from zero to 100 µM, 1:2 serial dilution). […] Plates were incubated at 37 °C for 24 h for H. pylori (ATCC 43504) and for 4–7 days for the clinical strains. H. pylori was tested in microaerophilic conditions generated using micro-anaerobic BD GasPak system. At the end of the incubation, OD600nm was measured using microplate reader (Synergy Mx, Biotek, Colmar, France). The MIC was defined as the lowest concentration of drug that inhibited visible growth of the organism. Experiments were conducted in independent triplicate (n = 3).

N87 cells = experiment: In vitro toxicity assay using human gastric cells (resazurin); format: cell-based; details: for IC50: 48 h
Protocol: [26] Human gastric cells N87 (ATCC CRL-5822) were cultured in RPMI-1640 medium supplemented with 10% fetal calf serum (FCS), 1% L-glutamine and 1% antibiotics (all from Invitrogen, Carlsbad, CA, USA) and were routinely seeded onto 25 cm^2 flasks maintained in a 5% CO2 incubator at 37 °C. For the toxicity assay, cells grown on 25 cm^2 flasks were detached using trypsin–EDTA solution (from Thermofisher), counted using Mallasez counting chamber and seeded into 96-well cell culture plates (Greiner Bio-one) at approximately 10^4 cells per well. The cells were left to grow for 48–72 h at 37 °C in a 5% CO2 incubator until they reached confluence. Plates were then aspirated and increasing concentrations of peptides were added to the cells for 48 h at 37 °C in a 5% CO2 incubator, volume of water corresponding to the volume of peptides being used as negative control. At the end of the incubation, wells were aspirated, and cell viability was evaluated using resazurin-based in vitro toxicity assay kit (Sigma-Aldrich) following manufacturer’s instructions. Briefly, resazurin stock solution was diluted 1:10 in sterile PBS containing calcium and magnesium (PBS^++, pH 7.4) and empty wells were filled with 100 µL of the diluted solution. After 4 h incubation at 37 °C, fluorescence intensity was measured using microplate reader (Synergy Mx, Biotek) with an excitation wavelength of 530 nm and an emission wavelength of 590 nm. The fluorescence values were normalized by the controls and expressed as percent viability.

[2] = test system: total lipids extracted from H. pylori (ATCC 43504); experiment: Lipid insertion assay (lipid monolayer, critical pressure of insertion); set-up: species or system biophysical; details: peptide 1 µM, PBS pH 7.4, from the line fits of Figure 4
Protocol: Peptide-lipid interaction was measured using reconstituted lipid monolayer at the air-water interface as previously described. Total lipids were extracted from overnight cultures of H. pylori (ATCC 43504) using Folch extraction procedure as previously described. Extracted total lipids were dried, resolubilized in chloroform:methanol (2:1, v/v) and stored at -20 °C under nitrogen. For peptide-lipid interaction assay, total lipid extract was spread using a 50 μL Hamilton's syringe at the surface of 800 μL of sterile PBS creating a lipid monolayer at the air-water interface. Lipids were added until the surface pressure reached the desired value. […] The variation of the surface pressure caused by peptide injection was then continuously monitored using a fully automated microtensiometer (μTROUGH SX, Kibron Inc., Helsinki, Finland) until reaching equilibrium (maximal surface pressure increase being usually obtained after 15-25 min). […] Variation of surface pressure was plotted as a function of initial surface pressure and the critical pressure of insertion of each peptide into H. pylori lipids was calculated as the theoretical value of initial pressure of lipid monolayer not permissive to peptide insertion, i.e., giving a variation of pressure equal to 0 mN/m.

H. pylori (ATCC 43504) [3] = test system: H. pylori (ATCC 43504)
Protocol: as §1
(§2) It is also rich with mucus to protect it from the aggressive acidity. For this reason, the impact of mucins and pepsin on the activity of the peptides was investigated. The impact of the gastric mucins on peptide activity was evaluated using a combination of commercial porcine stomach mucins MUC2 and MUC3 (Sigma–Aldrich) at a final concentration of 1 mg/mL sterilized using 0.2 µm filter. This concentration was used based on the estimated concentration of mucins present in the mucus in vivo [27]. The effect of mucins on peptides activity was evaluated by MIC and by time killing assay as explained below. The resistance of the peptides to pepsin was tested as previously described with some changes. […] This concentration was used since it corresponds the pepsin concentration in the stomach (0.5–1 mg/mL).

H. pylori (ATCC 43504) [4] = experiment: MIC after digestion by pepsin (resistance to pepsin); details: ATCC 43504, 4 h, pH 2
Protocol: as §1, §2

H. pylori (ATCC 43504) [5] = test system: H. pylori (ATCC 43504); remark: listed apart in the source
Protocol: The bactericidal activity of peptides was assessed using the time kill assay as previously described with some modifications. Briefly, overnight liquid culture of H. pylori (ATCC 43504) was prepared and an optical density measurement (OD600nm) was taken to provide an estimation of cell numbers in the culture. Bacterial suspension was then centrifuged at 3000 rpm for 5 min and the bacterial pellet was then resuspended in sterile PBS pH6 at approximatively 10^7 CFU/mL. The pH of PBS was changed from 7 to 6 with HCl to mimic the micro-environment surrounding H. pylori in the stomach. Indeed, although the lumen of the stomach is around 1–2, H. pylori is able, through the activity of its urease, to create a local micro-environment around it of pH 6 [31]. In addition to PBS pH 6, the time kill assay was also performed in PBS pH 6 containing a mixture of porcine stomach mucins MUC2 and MUC3 (at 1 mg/mL, final concentration) or in the presence of human gastric cells N87 producing human mucus. In that particular case, N87 cells were seeded onto 96-wells plates and left to grow for 48–72 h until they reached confluence. At that time, wells were aspirated and bacterial suspension in PBS pH 6 were added to the wells. In all cases, resuspended bacteria (200 µL) were treated with peptides or the conventional antibiotic amoxicillin at a final concentration corresponding to five times their MIC. Bacteria were then incubated in micro-aerobic conditions at 37 °C using GasPak units. […] The petri dishes were then incubated 16 h at 37 °C in microaerophilic conditions before counting of growing colonies. The number of surviving bacteria was calculated using the number of observed colonies and the dilution factor. The experiment was done in triplicate.

Row | SMILES | MIC on H. pylori (ATCC 43504) (H. pylori (ATCC 43504) [1]) | MIC in the Presence of mucins (H. pylori (ATCC 43504) [3]; ATCC 43504, 24 h) | increase of MIC in the presence of mucins (H. pylori (ATCC 43504) [3]; MUC2 and MUC3 at 1 mg/mL versus no mucins) | MIC after Digestion by Pepsin (H. pylori (ATCC 43504) [4]) | increase in toxicity to human gastric cells compared to temporin-SHa (N87 cells) | IC50 (N87 cells) | critical pressure of insertion (CPI) [2] | killing (H. pylori (ATCC 43504) [5]; 20 min, PBS pH 6, 5-times MIC) | killing (H. pylori (ATCC 43504) [5]; 3 h (180 min), PBS pH 6, 5-times MIC) | killing (H. pylori (ATCC 43504) [5]; 3 h, absence or presence of mucus, 5-times MIC) | killing (H. pylori (ATCC 43504) [5]; 9 h (540 min), 5-times MIC)
1 | CC[C@H](C)[C@H](NC(=O)CNC(=O)[C@H](CO)NC(=O)[C@H](CC(C)C)NC(=O)[C@@H](N)Cc1ccccc1)C(=O)N[C@H](C(=O)N[C@H](C)C(=O)N[C@@H](CCSC)C(=O)N[C@@H](CC(C)C)C(=O)NCC(=O)N[C@@H](CCCCN)C(=O)N[C@@H](CC(C)C)C(=O)N[C@@H](Cc1ccccc1)C(N)=O)C(C)C [NST3, H-Phe^1-Leu^2-Ser^3-Gly^4-Ile^5-Val^6-D-Ala^7-Met^8-Leu^9-Gly^10-Lys^11-Leu^12-Phe^13-NH2] (H-FLSGIV[dA]MLGKLF-NH2) | 3.12 µM | 6.25 µM | two | >50 µM | around 3 fold | 520 ± 148 µM | 35.73 mN/m |  |  |  | 
2 | CC[C@H](C)[C@H](NC(=O)[C@@H](C)NC(=O)[C@H](CO)NC(=O)[C@H](CC(C)C)NC(=O)[C@@H](N)Cc1ccccc1)C(=O)N[C@H](C(=O)NCC(=O)N[C@@H](CCSC)C(=O)N[C@@H](CC(C)C)C(=O)N[C@H](C)C(=O)N[C@@H](CCCCN)C(=O)N[C@@H](CC(C)C)C(=O)N[C@@H](Cc1ccccc1)C(N)=O)C(C)C [NST7, H-Phe^1-Leu^2-Ser^3-D-Ala^4-Ile^5-Val^6-Gly^7-Met^8-Leu^9-D-Ala^10-Lys^11-Leu^12-Phe^13-NH2] (H-FLS[dA]IVGML[dA]KLF-NH2) |  |  |  |  | around 15 fold | 84.7 ± 9 µM | 33 mN/m |  |  |  | 
3 | CC1(C)S[C@@H]2[C@H](NC(=O)[C@H](N)c3ccc(O)cc3)C(=O)N2[C@H]1C(=O)O [amoxicillin, reference compound] |  |  |  |  |  |  |  | 9% | 34% | 31.5–55% | 75%

Further lines, with some results ahead:

Row | MIC on H. pylori (ATCC 43504) (H. pylori (ATCC 43504) [1]) | MIC in the Presence of mucins (H. pylori (ATCC 43504) [3]; ATCC 43504, 24 h) | increase of MIC in the presence of mucins (H. pylori (ATCC 43504) [3]; MUC2 and MUC3 at 1 mg/mL versus no mucins) | MIC after Digestion by Pepsin (H. pylori (ATCC 43504) [4]) | SMILES | increase in toxicity to human gastric cells compared to temporin-SHa (N87 cells) | IC50 (N87 cells) | critical pressure of insertion (CPI) [2] | killing (H. pylori (ATCC 43504) [5]; 20 min, PBS pH 6, 5-times MIC) | killing (H. pylori (ATCC 43504) [5]; 3 h (180 min), PBS pH 6, 5-times MIC) | killing (H. pylori (ATCC 43504) [5]; 3 h, absence or presence of mucus, 5-times MIC) | killing (H. pylori (ATCC 43504) [5]; 9 h (540 min), 5-times MIC)
4 | 6.25 to 12.5 µM |  |  |  | CC[C@H](C)[C@H](NC(=O)[C@@H](C)NC(=O)[C@H](CO)NC(=O)[C@H](CC(C)C)NC(=O)[C@@H](N)Cc1ccccc1)C(=O)N[C@H](C(=O)N[C@H](C)C(=O)N[C@@H](CCSC)C(=O)N[C@@H](CC(C)C)C(=O)NCC(=O)N[C@@H](CCCCN)C(=O)N[C@@H](CC(C)C)C(=O)N[C@@H](Cc1ccccc1)C(N)=O)C(C)C [NST4, H-Phe^1-Leu^2-Ser^3-D-Ala^4-Ile^5-Val^6-D-Ala^7-Met^8-Leu^9-Gly^10-Lys^11-Leu^12-Phe^13-NH2] (H-FLS[dA]IV[dA]MLGKLF-NH2) | around 5 fold | 306 ± 48.4 µM | 39.12 mN/m |  |  |  | 
5 | 3.12 µM |  |  |  | CC[C@H](C)[C@H](NC(=O)CNC(=O)[C@H](CO)NC(=O)[C@H](CC(C)C)NC(=O)[C@@H](N)Cc1ccccc1)C(=O)N[C@H](C(=O)N[C@H](C)C(=O)N[C@@H](CCSC)C(=O)N[C@@H](CC(C)C)C(=O)N[C@H](C)C(=O)N[C@@H](CCCCN)C(=O)N[C@@H](CC(C)C)C(=O)N[C@@H](Cc1ccccc1)C(N)=O)C(C)C [NST6, H-Phe^1-Leu^2-Ser^3-Gly^4-Ile^5-Val^6-D-Ala^7-Met^8-Leu^9-D-Ala^10-Lys^11-Leu^12-Phe^13-NH2] (H-FLSGIV[dA]ML[dA]KLF-NH2) | around 15 fold | 104 ± 9.3 µM | 44.43 mN/m |  |  |  | 
